# Data reported in ChEMBL document CHEMBL1156067, “Pyrimidine-based antagonists of h-MCH-R1 derived from ATC0175: in vitro profiling and in vivo evaluation” (Bioorg Med Chem Lett, 2009).
# Biological target: Melanin-concentrating hormone receptor 1 (Homo sapiens, UniProt Q99705)
# Assay: Antagonist activity at CART form of human MCH1 receptor expressed in HEK293 cells coexpressing Galphaq assessed as inhibition of MCH-induced intracellular calcium level by FLIPR assay
# Assay type: functional, cell-based
# Chain of Melanin-concentrating hormone receptor 1 (Q99705 whole entry, looked up): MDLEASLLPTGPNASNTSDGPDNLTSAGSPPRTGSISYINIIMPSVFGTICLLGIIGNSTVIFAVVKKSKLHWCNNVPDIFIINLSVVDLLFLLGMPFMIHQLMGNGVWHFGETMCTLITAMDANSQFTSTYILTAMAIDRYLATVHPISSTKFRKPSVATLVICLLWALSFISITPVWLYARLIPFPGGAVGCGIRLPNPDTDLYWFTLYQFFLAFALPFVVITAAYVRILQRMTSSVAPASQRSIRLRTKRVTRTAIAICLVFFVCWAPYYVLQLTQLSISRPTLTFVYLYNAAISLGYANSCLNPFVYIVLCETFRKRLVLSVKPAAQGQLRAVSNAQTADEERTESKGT
SMILES,IC50,pA2
CN(C)c1cc(N(C)C)nc(N[C@H]2CC[C@@H](NC(=O)c3ccc(F)c(F)c3)CC2)n1,0.058 µM,
CN(C)CC1CCc2cc(NC(=O)c3ccc(-c4ccc(F)cc4)cc3)ccc2C1 (stereo not drawn),0.0055 µM,
Cc1cc(N(C)C)nc(N[C@H]2CC[C@@H](CNC(=O)c3ccc(F)c(F)c3)CC2)n1,0.21 µM,
Cc1cc(N(C)C)nc(N[C@H]2CC[C@@H](CNC(=O)c3cc(Cl)cc(Cl)c3)CC2)n1,0.064 µM,
CNc1nc(N[C@H]2CC[C@@H](CNC(=O)c3cc(C(F)(F)F)cc(C(F)(F)F)c3)CC2)ncc1C,0.2 µM,
Cc1cc(N(C)C)nc(N[C@H]2CC[C@@H](NC(=O)c3ccc(F)c(F)c3)CC2)n1,0.0025 µM,
CCN(C)c1nc(N[C@H]2CC[C@@H](NC(=O)c3ccc(F)c(F)c3)CC2)ncc1C,0.046 µM,
COCC1=C(C(=O)OC)[C@H](c2ccc(F)c(F)c2)N(C(=O)NCCCN2CCC(c3cccc(NC(C)=O)c3)CC2)C(=O)N1 [SNAP-7941],,9.24
Cc1cnc(N[C@H]2CC[C@@H](NC(=O)c3ccc(F)c(F)c3)CC2)nc1N(C)C,0.002 µM,
Cc1cccc(C(=O)N[C@H]2CC[C@@H](Nc3nc(C)cc(N(C)C)n3)CC2)c1,0.0096 µM,
Cc1cnc(N[C@H]2CC[C@@H](CNC(=O)c3cccc(C(F)(F)F)c3)CC2)nc1N(C)C,0.026 µM,
Cc1cnc(N[C@H]2CC[C@@H](CNC(=O)c3cc(C(F)(F)F)cc(C(F)(F)F)c3)CC2)nc1N,0.6 µM,
Cc1cnc(N[C@H]2CC[C@@H](CNC(=O)c3cc(Cl)cc(Cl)c3)CC2)nc1N(C)C,0.004 µM,
Cc1nc(N[C@H]2CC[C@@H](NC(=O)c3ccc(F)c(F)c3)CC2)nc(N(C)C)c1C,0.0023 µM,
Cc1cc(N(C)C)nc(N[C@H]2CC[C@@H](NC(=O)c3ccc(F)cc3)CC2)n1,0.025 µM,
Cc1cc(N(C)C)nc(N[C@H]2CC[C@@H](NC(=O)c3cccc(Cl)c3)CC2)n1,0.0065 µM,
Cc1cc(N(C)C)nc(N[C@H]2CC[C@@H](NC(=O)c3ccc(OC(F)(F)F)cc3)CC2)n1,0.23 µM,
CCc1cnc(N[C@H]2CC[C@@H](NC(=O)c3ccc(F)c(F)c3)CC2)nc1N(C)C,0.1 µM,
